# Results as given in paper doi:10.1101/2024.09.11.612517v1 (bioRxiv, 2024).
# Square brackets hold non-standard residues; d marks the D form. Peptide text beside a SMILES is read from it.
# Key:
# [1] = tested on: VEGF-induced retinal vascular permeability; format: in vivo, Wistar rats; settings: rats, single 0.5% eye drop at different times before intravitreal VEGF
# [2] = Ocular pharmacokinetics after one eye drop, rats; format: in vivo, Wistar rats; settings: 3 hours post-dose
# [3] = Ocular pharmacokinetics after one eye drop, rabbits; format: in vivo, New Zealand white rabbits
# [4] = NZ rabbits, single eyedrop of 0.5%, mean ± SEM, N = 3 eyes per timepoint, SEM
# [5] = rabbits, single 0.5% eye drop, 24 hours
smiles,measurement,setting,value
CC[C@@H](C)[C@H]1NC(=O)[C@@H]([C@H](C)O)NC(=O)[C@@H](Cc2c[nH]cn2)NC(=O)CNC(=O)[C@@H](CCCNC(=N)N)NC(=O)CNC(=O)[C@@H](Cc2ccccc2)NC1=O [VIAN-c4551] (cyclo([dI][dF]G[dR]G[dH][dT])),Duration of protective effect against VEGF challenge after the eye drop,[1],24 h
same,Concentration in the vitreous (molar),[2],~0.391 µM
same,"AUC0-24h, Retina-Choroid",[3]; [4],"467,434 ± 45,884 hours × ng g^-1"
same,"AUC0-24h, Vitreous",[3]; [4],"1,678 ± 182 hours × ng mL^-1"
same,"Cmax, Retina-Choroid",[3]; [4],"51,693.81 ± 6678.9 ng g^-1"
same,Retina-choroid exposure at 24 hours above IC50,"[3]; rabbits, 24 hours, vs IC50 for endothelial permeability",> 4 orders of magnitude
same,Cmax in retina-choroid (molar),"[3]; rabbits, single 0.5% eye drop",~67 µM
same,Retina/choroid Cmax above IC50 (137.3 pM),"[3]; rabbits, single 0.5% eye drop",5 orders of magnitude
same,Cmax in retina-choroid,"[3]; rabbits, single 0.5% eye drop (50 µL), HUVEC bioactivity read-out",52 µg/g
same,Exposure in retina-choroid after 24 hours,[3]; [5],3.5 µg/g
same,Exposure in retina-choroid after 24 hours (molar),[3]; [5],~4.64 µM
same,Exposure in vitreous after 24 hours,[3]; [5],10.6 ng/mL
same,Exposure in vitreous after 24 hours (molar),[3]; [5],~13.88 nM
same,Time for which high retina-choroid levels lasted,"[3]; rabbits, single topical instillation of 0.5%",24 h
